# Assays:
# Assay in all cases: relative viability (nuclei count vs DMSO), 5 days (fraction); higher = more cells survive
# [1] = test system: ABC-1
# In short: (§1)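 The day after seeding in 1536-well plates, lung cancer cell lines were treated by pin tool with a single drug, or with a fixed anchor-drug dose together with five library-drug doses (not always all listed) in √10 steps. After 5 days, a combined fix-and-stain solution (final 0.05% Triton X-100, 1% formaldehyde, 1 ug/ml Hoechst) was added. Nuclei counted on 4× images gave relative viability as treated counts over vehicle counts, reported as the median of duplicate plates.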
# [2] = test system: COR-L23
# In short: as §1
# [3] = test system: EPLC-272H
# In short: as §1
# [4] = test system: HARA
# In short: as §1
# [5] = test system: HCC-15
# In short: as §1
# [6] = test system: HCC-44
# In short: as §1
# [7] = test system: HOP-62
# In short: as §1
# [8] = test system: LC-2-ad
# In short: as §1
# [9] = test system: LU99A
# In short: as §1
# [10] = test system: NCI-H1355
# In short: as §1
# [11] = test system: NCI-H1651
# In short: as §1
# [12] = test system: NCI-H1915
# In short: as §1
# [13] = test system: NCI-H1993
# In short: as §1
# [14] = test system: NCI-H2023
# In short: as §1
# [15] = test system: NCI-H2085
# In short: as §1
# [16] = test system: NCI-H2126
# In short: as §1
# [17] = test system: NCI-H2347
# In short: as §1
# [18] = test system: NCI-H650
# In short: as §1
# [19] = test system: NCI-H838
# In short: as §1
# [20] = test system: PC-14
# In short: as §1
# [21] = test system: SW 1573
# In short: as §1
# [22] = test system: UMC-11
# In short: as §1
smiles,measurement,setting,value
COc1cc2nccc(Oc3ccc(NC(=O)Nc4cc(C)on4)c(Cl)c3)c2cc1OC [Tivozanib] + Cc1cc(Nc2cc(N3CCN(C)CC3)nc(Sc3ccc(NC(=O)C4CC4)cc3)n2)n[nH]1 [Tozasertib] (partner 0.1 µM),relative viability,[1]; first compound 0.005 µM,0.167
same,relative viability,[1]; first compound 0.01581 µM,0.185
same,relative viability,[1]; first compound 0.05 µM,0.188
same,relative viability,[1]; first compound 0.1581 µM,0.159
same,relative viability,[1]; first compound 0.5 µM,0.168
same,relative viability,[2]; first compound 0.005 µM,0.172
same,relative viability,[2]; first compound 0.01581 µM,0.218
same,relative viability,[2]; first compound 0.05 µM,0.363
same,relative viability,[2]; first compound 0.1581 µM,0.268
same,relative viability,[2]; first compound 0.5 µM,0.228
same,relative viability,[3]; first compound 0.005 µM,0.195
same,relative viability,[3]; first compound 0.01581 µM,0.255
same,relative viability,[3]; first compound 0.05 µM,0.387
same,relative viability,[3]; first compound 0.1581 µM,0.224
same,relative viability,[3]; first compound 0.5 µM,0.275
same,relative viability,[4]; first compound 0.005 µM,0.113
same,relative viability,[4]; first compound 0.01581 µM,0.107
same,relative viability,[4]; first compound 0.05 µM,0.112
same,relative viability,[4]; first compound 0.1581 µM,0.133
same,relative viability,[4]; first compound 0.5 µM,0.145
same,relative viability,[5]; first compound 0.005 µM,0.411
same,relative viability,[5]; first compound 0.01581 µM,0.419
same,relative viability,[5]; first compound 0.05 µM,0.496
same,relative viability,[5]; first compound 0.1581 µM,0.415
same,relative viability,[5]; first compound 0.5 µM,0.354
same,relative viability,[6]; first compound 0.005 µM,0.889
same,relative viability,[6]; first compound 0.01581 µM,0.9
same,relative viability,[6]; first compound 0.05 µM,0.839
same,relative viability,[6]; first compound 0.1581 µM,1.04
same,relative viability,[6]; first compound 0.5 µM,0.773
same,relative viability,[7]; first compound 0.005 µM,0.349
same,relative viability,[7]; first compound 0.01581 µM,0.384
same,relative viability,[7]; first compound 0.05 µM,0.422
same,relative viability,[7]; first compound 0.1581 µM,0.391
same,relative viability,[7]; first compound 0.5 µM,0.362
same,relative viability,[8]; first compound 0.005 µM,0.408
same,relative viability,[8]; first compound 0.01581 µM,0.486
same,relative viability,[8]; first compound 0.05 µM,0.484
same,relative viability,[8]; first compound 0.1581 µM,0.399
same,relative viability,[8]; first compound 0.5 µM,0.408
same,relative viability,[9]; first compound 0.005 µM,0.299
same,relative viability,[9]; first compound 0.01581 µM,0.279
same,relative viability,[9]; first compound 0.05 µM,0.307
same,relative viability,[9]; first compound 0.1581 µM,0.275
same,relative viability,[9]; first compound 0.5 µM,0.256
same,relative viability,[10]; first compound 0.005 µM,0.515
same,relative viability,[10]; first compound 0.01581 µM,0.576
same,relative viability,[10]; first compound 0.05 µM,0.57
same,relative viability,[10]; first compound 0.1581 µM,0.614
same,relative viability,[10]; first compound 0.5 µM,0.53
same,relative viability,[11]; first compound 0.005 µM,0.698
same,relative viability,[11]; first compound 0.01581 µM,0.768
same,relative viability,[11]; first compound 0.05 µM,0.758
same,relative viability,[11]; first compound 0.1581 µM,0.764
same,relative viability,[11]; first compound 0.5 µM,0.565
same,relative viability,[12]; first compound 0.005 µM,0.4
same,relative viability,[12]; first compound 0.01581 µM,0.439
same,relative viability,[12]; first compound 0.05 µM,0.413
same,relative viability,[12]; first compound 0.1581 µM,0.511
same,relative viability,[12]; first compound 0.5 µM,0.5
same,relative viability,[13]; first compound 0.005 µM,0.559
same,relative viability,[13]; first compound 0.01581 µM,0.585
same,relative viability,[13]; first compound 0.05 µM,0.568
same,relative viability,[13]; first compound 0.1581 µM,0.485
same,relative viability,[13]; first compound 0.5 µM,0.513
same,relative viability,[14]; first compound 0.005 µM,0.306
same,relative viability,[14]; first compound 0.01581 µM,0.324
same,relative viability,[14]; first compound 0.05 µM,0.405
same,relative viability,[14]; first compound 0.1581 µM,0.4
same,relative viability,[14]; first compound 0.5 µM,0.413
same,relative viability,[15]; first compound 0.005 µM,0.806
same,relative viability,[15]; first compound 0.01581 µM,0.699
same,relative viability,[15]; first compound 0.05 µM,0.905
same,relative viability,[15]; first compound 0.1581 µM,0.985
same,relative viability,[15]; first compound 0.5 µM,0.812
same,relative viability,[16]; first compound 0.005 µM,0.804
same,relative viability,[16]; first compound 0.01581 µM,0.846
same,relative viability,[16]; first compound 0.05 µM,0.915
same,relative viability,[16]; first compound 0.1581 µM,0.667
same,relative viability,[16]; first compound 0.5 µM,0.857
same,relative viability,[17]; first compound 0.01581 µM,0.54
same,relative viability,[17]; first compound 0.05 µM,0.594
same,relative viability,[17]; first compound 0.5 µM,0.511
same,relative viability,[18]; first compound 0.005 µM,0.763
same,relative viability,[18]; first compound 0.01581 µM,0.743
same,relative viability,[18]; first compound 0.05 µM,0.743
same,relative viability,[18]; first compound 0.1581 µM,0.732
same,relative viability,[18]; first compound 0.5 µM,0.594
same,relative viability,[19]; first compound 0.005 µM,0.268
same,relative viability,[19]; first compound 0.01581 µM,0.291
same,relative viability,[19]; first compound 0.05 µM,0.29
same,relative viability,[19]; first compound 0.5 µM,0.291
same,relative viability,[20]; first compound 0.005 µM,0.566
same,relative viability,[20]; first compound 0.01581 µM,0.647
same,relative viability,[20]; first compound 0.05 µM,0.55
same,relative viability,[20]; first compound 0.1581 µM,0.615
same,relative viability,[20]; first compound 0.5 µM,0.507
same,relative viability,[21]; first compound 0.005 µM,0.165
same,relative viability,[21]; first compound 0.01581 µM,0.17
same,relative viability,[21]; first compound 0.05 µM,0.198
same,relative viability,[21]; first compound 0.1581 µM,0.205
same,relative viability,[21]; first compound 0.5 µM,0.38
same,relative viability,[22]; first compound 0.005 µM,0.208
same,relative viability,[22]; first compound 0.01581 µM,0.2
same,relative viability,[22]; first compound 0.05 µM,0.198
same,relative viability,[22]; first compound 0.5 µM,0.211

# Source: the supplement of paper PMC10307832
